Results on 49 molecules are retold here after patent US8143259B2, “Cold menthol receptor antagonists” (Janssen Pharmaceutica, NV, priority 2008, dated 2012).

SMILES strings stand for the structures. Where “and” joins values, the source holds several entries; their conditions need not be identical. Equal entries are not always repeated.

In this assay the target is T1, canine TRPM8 (Canis lupus familiaris, UniProt Q1A7N1).
T1 construct: expressed in transfected cells
The assay can be described thus: In Vitro Canine TRPM8 Functional Assay (Ca2+ fluorescence, icilin activation). Type of assay: cell-based. Conditions: for inhibition at 0.2 µM: HEK293, 0.2 μM compound; for inhibition at 0.2 µM / inhibition at 0.5 µM / inhibition at 1 µM / % Inh @ 0.2 μM / % Inh @ 1 μM / % Inh @ 0.5 μM: canine TRPM8 HEK293, icilin; for IC50: HEK293 cells stably expressing canine TRPM8, icilin activation, Ca2+ fluorescence; for inhibition at 0.5 µM: HEK293, 0.5 μM compound; for inhibition at 1 µM: HEK293, 1 μM compound; for % Inh @ 0.2 μM: 0.2 μM compound; for % Inh @ 1 μM: 1 μM compound; for % Inh @ 0.5 μM: 0.5 μM compound. In short, it runs like this: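 Antagonism read as inhibition of the intracellular Ca2+ rise evoked by icilin (~EC80), measured by FLIPR or FDSS. Stable canine TRPM8 HEK293 line, Calcium 3 dye; 5 min compound preincubation. Normalised, basal-corrected peak fluorescence from quadruplicates fitted to sigmoidal curves.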

T1 sequence (Q1A7N1 1-1104): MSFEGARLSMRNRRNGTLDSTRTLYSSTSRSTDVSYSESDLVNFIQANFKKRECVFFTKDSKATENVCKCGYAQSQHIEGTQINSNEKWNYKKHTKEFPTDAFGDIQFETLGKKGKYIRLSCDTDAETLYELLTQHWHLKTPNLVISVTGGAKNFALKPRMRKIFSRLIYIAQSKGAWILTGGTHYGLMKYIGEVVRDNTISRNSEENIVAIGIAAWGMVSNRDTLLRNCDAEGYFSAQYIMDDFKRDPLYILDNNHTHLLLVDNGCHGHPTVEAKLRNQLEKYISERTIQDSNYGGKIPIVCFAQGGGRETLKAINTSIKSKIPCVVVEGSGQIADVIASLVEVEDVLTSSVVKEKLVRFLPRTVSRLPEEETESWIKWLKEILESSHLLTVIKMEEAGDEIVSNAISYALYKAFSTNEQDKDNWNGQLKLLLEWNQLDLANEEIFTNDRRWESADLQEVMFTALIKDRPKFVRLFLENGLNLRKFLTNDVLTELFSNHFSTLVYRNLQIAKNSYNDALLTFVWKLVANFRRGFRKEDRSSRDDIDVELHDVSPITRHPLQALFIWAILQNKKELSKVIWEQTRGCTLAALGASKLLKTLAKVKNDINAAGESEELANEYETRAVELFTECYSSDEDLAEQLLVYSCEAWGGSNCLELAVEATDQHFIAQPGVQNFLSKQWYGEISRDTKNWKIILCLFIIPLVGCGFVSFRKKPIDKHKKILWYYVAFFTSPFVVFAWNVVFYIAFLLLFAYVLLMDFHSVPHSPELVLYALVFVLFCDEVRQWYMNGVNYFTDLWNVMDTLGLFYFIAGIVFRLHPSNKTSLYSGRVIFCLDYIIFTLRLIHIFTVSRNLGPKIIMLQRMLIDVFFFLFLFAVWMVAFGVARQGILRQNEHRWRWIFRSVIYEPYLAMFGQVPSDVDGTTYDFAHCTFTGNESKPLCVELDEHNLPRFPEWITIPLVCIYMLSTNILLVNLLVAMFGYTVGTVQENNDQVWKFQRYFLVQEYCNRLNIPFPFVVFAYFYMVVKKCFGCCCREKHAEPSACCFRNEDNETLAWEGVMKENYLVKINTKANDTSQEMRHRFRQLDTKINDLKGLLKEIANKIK

Turning to `O=C(C(Nc1c(F)cccc1F)c1ccc(CO)cc1)N1CCC[C@H]1c1ccccc1F` (stereo partly drawn) [Cpd 219, 2-(2,6-Difluoro-phenylamino)-1-[(2S)-2-(2-fluoro-phenyl)-pyrrolidin-1-yl]-2-(4-hydroxymethyl-phenyl)-ethanone], the inhibition at 0.2 µM came to 89% and the IC50 was determined as 68 nM.

For `O=C(C(Nc1c(F)cccc1F)c1ccc(Br)cc1)N1CCC[C@H]1c1ccccc1F` (some centres unmarked) [Cpd 181], the inhibition at 0.2 µM worked out at 96% and the IC50 worked out at 5 nM. With `O=C(C(Nc1ccccc1F)c1cc2cccnc2s1)N1CCCC1c1ccccc1F` (centres unmarked) [Cpd 328], the inhibition at 0.2 µM is 101% and the IC50 was 8 nM. On to `COC(=O)C1CCC(c2ccccc2)N1C(=O)C(Nc1ccccc1)c1ccc(Cl)cc1` (single isomer, unassigned) [Cpd 206], for which the inhibition at 0.2 µM is 92% and the IC50 stood at 76 nM. The corresponding values for `Nc1cccc(C2CCCN2C(=O)C(Nc2ccccc2F)c2ccc(C(F)(F)F)cc2)c1` (centres unmarked) [Cpd 305] are 101% and 2 nM. For `Cc1ccccc1C1CCCN1C(=O)C(Nc1ccccc1)c1ccc(C(F)(F)F)cc1` (centres unmarked) [Cpd 32], the inhibition at 0.5 µM is 104% and the IC50 stood at 31.2 nM. As to `CC(C)(C)c1ccc(C(Nc2ccccc2)C(=O)N2CCC(O)(c3ccccn3)CC2)cc1` (centres unmarked) [Cpd 4], the inhibition at 1 µM was determined as 102% and the IC50 is 291 nM. Consider `CS(=O)(=O)c1ccc(C(Nc2ccccc2F)C(=O)N2CCCC2c2ccccc2F)cc1` (mixture of isomers) [Cpd 224], for which the “% Inh @ 0.2 μM” value amounted to 55%. For `O=C(C(Nc1ccccc1)c1ccc(Cl)cc1)N1CCCC1c1ccccc1F` (centres unmarked) [Cpd 142], the inhibition at 0.5 µM turned out to be 97% and it took 18 nM to reach half-maximal inhibition (IC50).

For the molecule `O=C(C(Nc1cccc(F)c1F)c1ccc(Cl)cc1)N1Cc2ccccc2C1` (centres unmarked) [Cpd 169], the inhibition at 0.5 µM was found to be 92% and 142 nM corresponded to half-maximal inhibition (IC50). `CC(Nc1ccccc1)(C(=O)N1CCCC1c1ccccc1Cl)c1ccc(C(F)(F)F)cc1` (centres unmarked) [Cpd 80, 1-[2-(2-Chloro-phenyl)-pyrrolidin-1-yl]-2-phenylamino-2-(4-trifluoromethyl-phenyl)-propan-1-one]: the inhibition at 0.5 µM came out at 69%.

On to `O=C(C(Nc1ccc(F)cc1)c1ccc(Cl)cc1)N1CCCC1c1ccccc1Cl` (centres unmarked) [Cpd 116], for which the inhibition at 0.5 µM amounted to 98% and the IC50 worked out at 80.3 nM. As for `O=C(C(Nc1ccccc1F)c1ccc(-c2ccncc2)cc1)N1CCCC1c1ccccc1F` (centres unmarked) [Cpd 294], the inhibition at 0.2 µM was 92%; the IC50 was 22 nM and 27 nM. For the same molecule, the “% Inh @ 0.2 μM” value (0.2 µM) amounted to 102%.

Turning to `O=C(C(Nc1ccccc1)c1ccc(Cl)cc1)N1[C@H](CO)CC[C@@H]1c1ccccc1` (single isomer, unassigned) [Cpd 235], the IC50 came to 53.7 nM. Consider `COc1ccc(NC(C(=O)N2Cc3cccc(F)c3C2)c2ccc(Cl)cc2)cc1` (centres unmarked) [Cpd 141], for which the inhibition at 0.5 µM amounted to 79% and the IC50 is 188 nM. For the molecule `O=C(C(Nc1c(F)cccc1F)c1ccc(Br)cc1)N1CCCC1c1ccccc1F` (single isomer, unassigned) [Cpd 161], the inhibition at 0.2 µM amounted to 98%; the inhibition at 0.5 µM was determined as 93%; the IC50 was 63 nM and 36 nM.

As for `O=C(C(Nc1ccccc1)c1cccc(C(F)(F)F)c1)N1Cc2ccccc2C1` (centres unmarked) [Cpd 99], the inhibition at 0.5 µM turned out to be 99% and the IC50 turned out to be 89 nM. For the molecule `CC(C)(C)c1ccc(C(Nc2ccccc2)C(=O)N2CCCC2CNc2ccccc2)cc1` (single isomer, unassigned) [Cpd 368], the “% Inh @ 1 μM” value is on record as 15.864%. Consider `COc1ccccc1C1CCCN1C(=O)C(Nc1ccc(F)cc1F)c1ccc(Cl)cc1` (centres unmarked) [Cpd 124], for which the inhibition at 0.5 µM was 98% and the IC50 was determined as 81.7 nM. Turning to `CC(C)(C)c1ccc(C(Nc2ccccc2)C(=O)N2CCCC2c2cccc(Cl)c2)cc1` (single isomer, unassigned) [Cpd 8], the inhibition at 1 µM worked out at 86.6% and it took 778 nM to reach half-maximal inhibition (IC50). As to `O=C(C(NC1CCCCC1)c1ccc(C(F)(F)F)cc1)N1CCc2ccccc21` (racemic) [Cpd 41], the “% Inh @ 0.5 μM” value is on record as 70.995%.

Consider `Cc1c(C(Cc2ccccc2F)C(=O)N2CCCC2c2ccccc2F)sc2ccccc12` (mixture of isomers) [Cpd 177], for which the “% Inh @ 0.2 μM” value is 63%.

`CC(C)(C)c1ccc(C(Nc2ccccc2)C(=O)N2CCCC2c2cccc(Cl)c2)cc1` (single isomer, unassigned) [Cpd 9] registered an IC50 of 161 nM. For the same molecule, the “% Inh @ 1 μM” value (1 µM) is listed as 102.98%. In the case of `O=C(C(Nc1ccccc1F)c1ccc2c(c1)CCO2)N1CCC[C@H]1c1ccccc1F` (mixture of isomers) [Cpd 286], the inhibition at 0.2 µM was found to be 96% and the midpoint of inhibition, the IC50, lay at 14 nM. `O=C(C(Nc1ccccc1F)c1ccc(C2=CCNCC2)cc1)N1CCCC1c1ccccc1F` (centres unmarked) [Cpd 302, 2-(2-Fluoro-phenylamino)-1-[2-(2-fluoro-phenyl)-pyrrolidin-1-yl]-2-[4-(1,2,3,6-tetrahydro-pyridin-4-yl)-phenyl]-ethanone]: the inhibition at 0.2 µM is 57%. As for `O=C(C(Nc1ccccc1)c1ccc(Br)cc1)N1Cc2ccccc2C1` (centres unmarked) [Cpd 71], the inhibition at 0.5 µM came out at 91% and the IC50 came out at 74 nM.

In the case of `COc1ccc(C(Nc2ccccc2)C(=O)N2Cc3ccccc3C2)cc1` (racemic) [Cpd 73], the “% Inh @ 0.5 μM” value is recorded as 33%. In the case of `O=C(C(Nc1ccccc1)c1ccc(C(F)(F)F)cc1)N1CCCC1c1ccccc1C(F)(F)F` (single isomer, unassigned) [Cpd 31], the IC50 turned out to be 48.5 nM. The “% Inh @ 0.5 μM” value (0.5 µM) is reported as 104.03%. `O=C(C(Nc1ccccc1)c1ccc(C(F)(F)F)cc1)N1CCCC1c1ccccc1F` (single isomer, unassigned) [Cpd 47] returned an IC50 of 200 nM. For the same molecule, the “% Inh @ 0.5 μM” value (0.5 µM) is recorded as 99.791%. In turn, `O=C(C(Nc1ccccc1F)c1cnc2ccccc2c1)N1Cc2ccccc2C1` (centres unmarked) [Cpd 371] came in with an IC50 of 100 nM.

Consider `CC(C)(C)c1ccc(C(Nc2ccccc2F)C(=O)N2CCCC2c2ccccc2F)cn1` (single isomer, unassigned) [Cpd 356], for which the “% Inh @ 0.2 μM” value stood at 57%.

In turn, `O=C(C(Nc1ccccc1)c1ccc(C(F)(F)F)cc1)N1CCCC1c1ccccc1F` (single isomer, unassigned) [Cpd 48] showed an IC50 of 219 nM. Besides, the “% Inh @ 0.5 μM” value (0.5 µM) is on record as 85.869%.

For `O=C(C(Nc1ccccc1)c1ccc(C(F)(F)F)cc1)N1CCCC1c1cccnc1` (centres unmarked) [Cpd 19], the inhibition at 1 µM was 100% and half-maximal inhibition (IC50) required 282 nM. Consider `O=C(C(Nc1cccc(F)c1F)c1ccc(Cl)cc1)N1CCCC1c1ccccc1` (centres unmarked) [Cpd 168], for which the inhibition at 0.5 µM was found to be 97% and half-maximal inhibition (IC50) was put at 35 nM. In the case of `Nc1ccc(C2CCCN2C(=O)C(Nc2ccccc2F)c2ccc(C(F)(F)F)cc2)cc1` (centres unmarked) [Cpd 266], the inhibition at 0.2 µM came out at 100% and half-maximal inhibition (IC50) required 2 nM. Regarding `O=C(C(Nc1ccccc1F)c1cc2ccccc2s1)N1CCCC1c1ccccn1` (single isomer, unassigned) [Cpd 331], the “% Inh @ 0.2 μM” value worked out at 101% and 13 nM corresponded to half-maximal inhibition (IC50). `CCOC(=O)c1ccc(C(Nc2ccccc2F)C(=O)N2CCC[C@H]2c2ccccc2F)cc1` (mixture of isomers) [Cpd 182]: the inhibition at 0.2 µM was 102% and the IC50 was found to be 13 nM. `O=C(C(Nc1ccccc1)c1ccc(C(F)(F)F)cc1)N1CCCC1c1ccccc1F` (single isomer, unassigned) [Cpd 45]: the inhibition at 0.5 µM amounted to 101% and the IC50 worked out at 105 nM. On to `O=C(C(Nc1ccccc1F)c1ccc(N2CCOCC2)nc1)N1CCC[C@H]1c1ccccc1F` (mixture of isomers) [Cpd 358], for which the inhibition at 0.2 µM was determined as 100% and the IC50 was 8 nM. Taken in the same sequence, the figures for `CCOC(=O)c1ccc(C(Nc2ccccc2F)C(=O)N2CCCC2c2ccccc2F)cc1` (centres unmarked) [Cpd 287] were 92% and 27 nM. Consider `O=C(C(Nc1c(F)cccc1F)c1ccc(Cl)cc1)N1Cc2ccccc2C1` (centres unmarked) [Cpd 147], for which the inhibition at 0.5 µM was determined as 93% and the IC50 amounted to 132 nM. Turning to `O=C(C(Cc1c(F)cccc1F)c1ccc(C(F)(F)F)cc1)N1CCCC1c1cccnc1` (mixture of isomers) [Cpd 268], where the note is “0.2 µM”, the “% Inh @ 0.2 μM” value was 13% and 15%.

In the case of `CN(C)c1cccc([C@H]2CCCN2C(=O)C(Nc2ccccc2F)c2ccc(C(F)(F)F)cc2)c1` (mixture of isomers) [Cpd 348], the inhibition at 0.2 µM amounted to 100% and the midpoint of inhibition, the IC50, lay at 22 nM. Turning to `O=C(C(Nc1cccc(F)c1F)c1ccc(Cl)cc1)N1CCCC1c1ccccc1F` (single isomer, unassigned) [Cpd 164], the IC50 is 26 nM. Where the note is “0.5 µM”, the “% Inh @ 0.5 μM” value was 96%. On to `O=C(C(Nc1ccccc1F)c1ccc(C(F)(F)F)cc1)N1CCCC1c1ccccc1F` (mixture of isomers) [Cpd 131], for which the IC50 came out at 6.9 nM. Also, the “% Inh @ 0.5 μM” value (0.5 µM) amounted to 103%. Consider `O=C(O)c1ccc(-c2ccc(C(Nc3ccccc3F)C(=O)N3CCCC3c3ccccc3Cl)cc2)cc1` (centres unmarked) [Cpd 350], for which the inhibition at 0.2 µM came out at 99% and the IC50 was 42 nM. `O=C(C(Cc1cccc(F)c1F)c1ccc(C(F)(F)F)cc1)N1CCCC1c1ccccc1F` (centres unmarked) [Cpd 253]: the inhibition at 0.2 µM came out at 89% and the IC50 worked out at 65.8 nM. Taken in the same sequence, the figures for `O=C(C(Nc1ccccc1F)c1ccc(C(F)(F)F)cc1)N1CCCC1c1ccccc1Cl` (single isomer, unassigned) [Cpd 189] were 98% and 9 nM. For the molecule `COc1ccccc1C1CCCN1C(=O)C(Nc1ccccc1F)c1ccc(Br)cc1` (single isomer, unassigned) [Cpd 175], the inhibition at 0.2 µM turned out to be 85% and the IC50 is 69 nM.

The term inhibition denotes the change of the read-out against control, counted positive when it falls. In general, IC50 refers to the midpoint of a concentration-inhibition curve.
